Legend:
A673 = assay: In vitro high-throughput screen of FDA-approved drug library (CellTiter-Glo); format: cell-based; settings: 1 μmol/L drug, 72 hours
Description: (§1) We screened, in parallel to the three computational approaches, an FDA-approved drug library containing 2,316 drugs (1,536 unique chemical entities). […] The drug screening study protocol employed is summarized in Supplementary Table S1.
(§2) Cells were grown to 80–90% confluence, harvested and aliquoted into 384-well plates (black μClear microplates, Greiner bio-one, Germany) at concentrations of 750–1,500 cells per well in a total volume of 25 μl/well using a Matrix Wellmate (Thermo Scientific). Cells were cultured for 72 hours in a 5% CO2 atmosphere at 37°C. Aliquots of 25 μl CellTiter-Glo® Reagent (Promega) were added directly to each well, the plates were incubated at room temperature for 20 min and the luminescence signal was measured according to the manufacturer's protocol. The measurements were made using Infinite® M200 Pro plate reader (Tecan, Switzerland). […] Data were normalized to percentage inhibition. […]
(§3) (A) Color scale for drug inhibition values. […]

Hs 919.T. = assay: as above; format: cell-based; settings: 1 μmol/L drug, 72 hours, control cell line
Description: as §1, §2, §3

RD-ES = assay: as above; format: cell-based; settings: 1 μmol/L drug, 72 hours
Description: as §1, §2, §3

SK-ES-1 = assay: as above; format: cell-based; settings: 1 μmol/L drug, 72 hours
Description: as §1, §2, §3

[1] = Blood gold pharmacokinetics after i.p. auranofin suspension with ganetespib pre-treatment; format: in vivo, BALB/c mice
From the text: As indicated previously, auranofin is a complex of gold triethylphosphine and thioglucose tetraacetate. Gold comprises 29% of auranofin by weight. Auranofin is chemically and metabolically highly unstable in solution. […] Following oral administration of ^195Au auranofin to humans, 25% of administered ^195Au appears in plasma. Further, approximately 40% of absorbed gold distributes into erythrocytes with 60% found in plasma. As a result, and consistent with the extensive literature describing auranofin pharmacokinetics in animals and humans, we characterized the pharmacokinetics of i.p. auranofin in mice by quantifying blood gold concentrations as summarized in Table 4. Peak blood gold concentrations were 12.43 μg/mL in mice receiving auranofin suspension preceded by i.v. ganetespib. […]
The single-dose […] pharmacokinetics of gold were characterized in 36 BALB/c mice following administration of a single 12 mg/kg i.p. suspension dose of auranofin. […] Whole blood aliquots of 500 μL obtained from each of the three animals per time point were assayed using a validated inductively coupled plasma mass spectrometry (ICPMS) method to quantify blood gold concentration. Mean blood gold concentrations were determined for each blood collection time point. […]

[2] = mice, 18 months, cited from earlier work
BALB/3T3 cell = tested on: BALB/3T3 cell; set-up: method as in ref 18, ref 19; settings: cited from earlier work
[3] = cited from earlier work
[4] = set-up: method as in ref 19 (a number printed in a supplementary file, which may have a reference list of its own: not looked up in the article's list); settings: 0.625 - 10 mg gold/kg p.o.; cited from earlier work
[5] = tested on: human neutrophil and monocyte; set-up: method as in ref 19 (a number printed in a supplementary file, which may have a reference list of its own: not looked up in the article's list); settings: 0.1 - 1.0 µg auranofin/mL; cited from earlier work
human monocyte = tested on: human monocyte; set-up: method as in ref 19 (a number printed in a supplementary file, which may have a reference list of its own: not looked up in the article's list); settings: 0.1 - 1.0 µg auranofin/mL; cited from earlier work
mouse spleen cells = tested on: mouse spleen cells; set-up: method as in ref 19 (a number printed in a supplementary file, which may have a reference list of its own: not looked up in the article's list); settings: 1 x 10^-4M and 1 x 10^-5M; cited from earlier work
Rhesus monkey lung = tested on: Rhesus monkey lung; set-up: method as in ref 19 (a number printed in a supplementary file, which may have a reference list of its own: not looked up in the article's list); settings: 1.5 x 10^-4M; cited from earlier work
[6] = set-up: method as in ref 19 (a number printed in a supplementary file, which may have a reference list of its own: not looked up in the article's list); settings: dogs, 0.6 - 1.2 mg auranofin/kg p.o.; cited from earlier work

CC(=O)OC[C@H]1O[C@@H]([S-])[C@H](OC(C)=O)[C@@H](OC(C)=O)[C@@H]1OC(C)=O.CCP(CC)CC.[Au+] [Auranofin, auranofin]
% Inhibition A673 (A673): 98%
% Inhibition Hs 919.T. (Hs 919.T.): < 50%
% Inhibition RD-ES (RD-ES): 100%
% Inhibition SK-ES-1 (SK-ES-1): 99%
Trough gold concentration ([1]; 24 hours following the fifth once daily i.p. dose of 12 mg/kg): 23.9 µg/mL
Cmax ([1]; single i.p. 12 mg/kg auranofin suspension, ganetespib pre-treatment): 63.1 µM
instances of tumors above controls ([2]; oral 1, 3 and 9 mg/kg/day): no statistica ll y significant increase
tumor findings ([2]; oral 1, 3 and 6-9 mg/kg/day): increase in benign
mutation effects (BALB/3T3 cell): no m utation effects
teratogenic effects in pregnant mice ([3]; 5 mg/kg/day): no ter atogenic
embryotoxic or teratogenic effect in mice ([3]; oral 0.2, 1 and 5 mg/kg/day, days 6-15 of pregnancy): no embryotoxic or teratogenic effect
suboptimal delayed hypersensitivity response [4]: stimulatory effect
chemotaxis [5]: inhibited
phagocytosis (human monocyte): inhibited
plaque-forming cells (mouse spleen cells): marked inhibition
anti-human IgE-induced release of histamine and SRS-A (Rhesus monkey lung): inhibition
antidiuretic effect [6]: not in dogs

Source: PMC5354814, “In silico and in vitro drug screening identifies new therapeutic approaches for Ewing sarcoma” (Oncotarget, 2016)
